# Laboratory results: PMC9151520 (Archives of Toxicology, 2022)
# Where “and” joins values, the source holds several entries; their conditions need not be identical. Identical values can stand only once. Like-named read-outs stand apart in the source and are kept apart here.
# What was measured:
# [1] = test system: p53 signaling (p53RE-bla HCT-116 cells); assay: cells; type: cell-based
# [2] = test system: p53 signaling (p53RE-bla HCT-116 cells)
# [3] = test system: p53 signaling (p53RE-bla HCT-116 cells); remark: listed apart in the source
# [4] = test system: p53RE-bla HCT-116 cells
# [5] = Homo sapiens, HCT-116, read-out: p53 activation EC50, cherry pick confirmation
# [6] = Homo sapiens, HCT-116, read-out: p53 activation EC50, primary screening
# [7] = Homo sapiens, HCT-116, read-out: p53 activation efficacy, cherry pick confirmation
# [8] = Homo sapiens, HCT-116, read-out: p53 activation efficacy, primary screening
# [9] = read-out: p53 activation EC50, cherry pick confirmation
# [10] = read-out: p53 activation EC50, primary screening
# [11] = read-out: EC50, p53 activation, primary screening
SMILES,"EC50 [1, 5] [µM]","EC50 [1, 6] [µM]","Emax [1, 7] [%]","Emax [1, 8] [%]","p53 activation EC50, cherry pick confirmation [2]","p53 activation EC50, primary screening [2]","p53 activation efficacy, cherry pick confirmation [2]","p53 activation efficacy, primary screening [2]","p53 activation EC50, cherry pick confirmation [3]","p53 activation EC50, primary screening [3]","p53 activation efficacy, cherry pick confirmation [3]","p53 activation efficacy, primary screening [3]","Viability EC50, cherry pick confirmation [4]","Viability EC50, primary screening [4]","Viability efficacy, cherry pick confirmation [4]","Viability efficacy, primary screening [4]","p53 activation efficacy, cherry pick confirmation [1]","p53 activation efficacy, primary screening [1]","EC50 [1, 9] [µM]","EC50 [1, 10] [µM]",further results
Oc1ccc(OCc2ccccc2)cc1 [4-(Benzyloxyl)phenol],14,18.6,39,33.5,inactive,inactive,inactive,inactive,inactive,inactive,inactive,inactive,inactive,inactive,inactive,inactive,–,–,–,–,–
CC(C)c1cccc(C(C)C)c1N1C(=O)c2ccc(O)cc2C1=O,–,–,–,–,inactive,inactive,inactive,inactive,inactive,inactive,inactive,inactive,inactive,inactive,inactive,inactive,44.7367,87.6647,3.1,3.93,–
C/C=C(/C(=C/C)c1ccc(O)cc1)c1ccc(O)cc1 [Dienestrol],7.79,7.81,36.1,32.6,inactive,inactive,inactive,inactive,inactive,inactive,inactive,inactive,inactive,inactive,inactive,inactive,–,–,–,–,–
"O=C(c1ccc(O)cc1)c1ccc(O)cc1O [2,4,4'-Trihydroxybenzophenone]",–,–,–,–,–,–,–,–,–,–,–,–,–,–,–,–,–,–,–,–,"EC50, p53 activation, cherry pick confirmation [1]: inactive; Efficacy, p53 activation, cherry pick confirmation [1]: inactive; Efficacy, p53 activation, primary screening [1]: 51.9983; EC50 [1, 11]: 46.5 µM; EC50, p53 activation, cherry pick confirmation [2]: inactive; EC50, p53 activation, primary screening [2]: inactive; Efficacy, p53 activation, cherry pick confirmation [2]: inactive; Efficacy, p53 activation, primary screening [2]: inactive; EC50, p53 activation, cherry pick confirmation [3]: inactive; EC50, p53 activation, primary screening [3]: inactive; Efficacy, p53 activation, cherry pick confirmation [3]: inactive; Efficacy, p53 activation, primary screening [3]: inactive; EC50, viability, cherry pick confirmation [4]: inactive; EC50, viability, primary screening [4]: inactive; Efficacy, viability, cherry pick confirmation [4]: inactive; Efficacy, viability, primary screening [4]: inactive"
c1cc(OCC2CO2)ccc1Cc1ccc(OCC2CO2)cc1 (stereo not drawn) [Bis[4-(glycidyloxy)phenyl]methane],–,–,–,–,–,–,–,–,–,–,–,–,–,–,–,–,–,–,–,–,"Efficacy, p53 activation, cherry pick confirmation [1]: 31.4403; Efficacy, p53 activation, primary screening [1]: 46.3017; EC50 ([1]; read-out: EC50, p53 activation, cherry pick confirmation): 26.4 µM; EC50 [1, 11]: 47.6 µM; EC50, p53 activation, cherry pick confirmation [2]: inactive; EC50, p53 activation, primary screening [2]: inactive; Efficacy, p53 activation, cherry pick confirmation [2]: inactive; Efficacy, p53 activation, primary screening [2]: inactive; EC50, p53 activation, cherry pick confirmation [3]: inactive; EC50, p53 activation, primary screening [3]: inactive; Efficacy, p53 activation, cherry pick confirmation [3]: inactive; Efficacy, p53 activation, primary screening [3]: inactive; EC50, viability, cherry pick confirmation [4]: inactive; EC50, viability, primary screening [4]: inactive; Efficacy, viability, cherry pick confirmation [4]: inactive; Efficacy, viability, primary screening [4]: inactive"
Clc1ccc2cc3ccccc3cc2c1 [2-Chloroanthracene],–,–,–,–,–,–,–,–,–,–,–,–,–,–,–,–,–,–,–,–,"p53 activation Efficacy, No MS [1]: 70.691% and 61.8737%; EC50 ([1]; read-out: p53 activation EC50, No MS): 35.6 µM; p53 activation EC50, RLM [2]: inactive; EC50 ([2]; read-out: p53 activation EC50, RLM): 50.1 µM; p53 activation EC50, HLM [3]: inactive; EC50 ([3]; read-out: p53 activation EC50, HLM): 23.2 µM; Viability EC50, HLM [4]: inactive; Viability EC50, No MS [4]: inactive; Viability EC50, RLM [4]: inactive; Viability Efficacy, HLM [4]: inactive; Viability Efficacy, No MS [4]: inactive; Viability Efficacy, RLM [4]: inactive"
CC(=O)Nc1ccn(C2COC(COC(=O)c3ccccc3)O2)c(=O)n1 (stereo not drawn),–,–,–,–,inactive,inactive,inactive,inactive,inactive,inactive,inactive,inactive,inactive,inactive,inactive,inactive,43.9867,52.8473,9.43,2.5,–
N[C@@H](Cc1ccc(N(CCCl)CCCl)cc1)C(=O)O [Melphalan],15.6,17.8,43.3,46.7,inactive,inactive,inactive,inactive,inactive,inactive,inactive,inactive,inactive,inactive,inactive,inactive,–,–,–,–,–
Nc1nc(Cl)nc2c1ncn2[C@@H]1O[C@H](CO)[C@@H](O)[C@@H]1F [Clofarabine],0.335,0.138,84.9,93.3,inactive,inactive,inactive,inactive,inactive,inactive,inactive,inactive,inactive,inactive,inactive,inactive,–,–,–,–,–
"Nc1cc(Cl)c(-c2cc(Cl)c(N)cc2Cl)cc1Cl [2,2',5,5'-Tetrachlorobenzidine]",–,–,–,–,inactive,inactive,inactive,inactive,inactive,inactive,inactive,inactive,inactive,–,–,–,92.1083,80.5693,36.2,17.8,"EC50 ([4]; read-out: Viability EC50, cherry pick confirmation): 49.4 µM and 51.3 µM; EC50 ([4]; read-out: Viability EC50, primary screening): 49.5 µM (2×) and 37.5 µM"
CCOC(=O)NC(=S)Nc1ccccc1NC(=S)NC(=O)OCC [Thiophanate],–,–,–,–,–,–,–,–,–,–,–,–,–,–,–,–,–,–,–,–,"EC50, p53 activation, cherry pick confirmation [1]: inactive; Efficacy, p53 activation, cherry pick confirmation [1]: inactive; EC50 ([1]; Homo sapiens, HCT-116, read-out: EC50, p53 activation, primary screening): 41 µM; Emax ([1]; Homo sapiens, HCT-116, read-out: Efficacy, p53 activation, primary screening): 70.2%; EC50, p53 activation, cherry pick confirmation [2]: inactive; EC50, p53 activation, primary screening [2]: inactive; Efficacy, p53 activation, cherry pick confirmation [2]: inactive; Efficacy, p53 activation, primary screening [2]: inactive; EC50, p53 activation, cherry pick confirmation [3]: inactive; EC50, p53 activation, primary screening [3]: inactive; Efficacy, p53 activation, cherry pick confirmation [3]: inactive; Efficacy, p53 activation, primary screening [3]: inactive; EC50, viability, cherry pick confirmation [4]: inactive; EC50, viability, primary screening [4]: inactive; Efficacy, viability, cherry pick confirmation [4]: inactive; Efficacy, viability, primary screening [4]: inactive"
Cc1cc(=O)oc2cc(N(C)C)ccc12 [7-(Dimethylamino)-4-methylcoumarin],–,–,–,–,inactive,–,inactive,–,inactive,–,inactive,–,inactive,inactive,inactive,inactive,79.8427,78.774,29.5,35.2,–
